Measured values as given in patent US8785488B2 (Exelixis Patent Company LLC, priority 2009, dated 2014).

What was measured:
[1] = target: T1, h-TGR5 (Homo sapiens, UniProt Q8TDU6); assay: TGR5 cAMP Assay using Cisbio cAMP Dynamic2 htrf kit (hTGR5CRE-luc HEK 293 cells); format: cell-based; conditions: h-TGR5 cAMP EC50, Table 1; read-out: cAMP (EC50)
T1 construct: expressed in transfected cells
T1 sequence (Q8TDU6 1-330): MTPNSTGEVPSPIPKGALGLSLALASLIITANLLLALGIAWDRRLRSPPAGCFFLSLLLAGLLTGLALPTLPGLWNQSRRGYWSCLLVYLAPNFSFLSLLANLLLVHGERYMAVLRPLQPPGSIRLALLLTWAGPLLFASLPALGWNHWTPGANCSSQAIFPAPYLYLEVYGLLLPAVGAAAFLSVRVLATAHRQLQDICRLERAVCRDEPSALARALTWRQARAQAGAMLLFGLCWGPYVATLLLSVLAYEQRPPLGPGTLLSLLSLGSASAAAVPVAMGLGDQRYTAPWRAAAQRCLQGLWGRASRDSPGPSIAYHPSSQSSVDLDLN
Procedure, shortened: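 […], 4000 hTGR5CRE-luc HEK 293 cells per well, with 0.5 mM IBMX and d2-cAMP, were incubated 30 min at room temperature with compounds in 8-point half-log series, in quadruplicate.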

[2] = target: T2, human TGR5 (h-TGR5) (Homo sapiens, UniProt Q8TDU6); assay: TGR5/CRE-Luciferiase Assay (HEK 293 hTGR5/CRE-Luc cells); format: cell-based; conditions: h-TGR5 CRE-Luc EC50, Table 1; read-out: CRE-Luc (EC50)
T2 construct: expressed in transfected cells
T2 sequence (Q8TDU6 1-330): T1 sequence (Q8TDU6 1-330)
Procedure, shortened: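 HEK293 cells stably carrying hTGR5 and a CRE-luciferase reporter were exposed to serially diluted compounds (diluted in DMEM with 5% DMSO) for 6 h. Cells were then lysed in luciferase buffer, luminescence was read, and EC50 values were derived from dose-response curves.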

EC50 [1] [nM]	EC50 [2] [nM]	Structure (SMILES)
100 to 1000	100 to 1000	COc1cc(C(C)(C)c2cnc(SCc3ccc(S(=O)(=O)NC(=O)NN4CCCC4)cc3Cl)n2-c2ccc(F)cc2)ccc1F [3-chloro-4-({[5-{1-[4-fluoro-3-(methyloxy)phenyl]-1-methylethyl}-1-(4-fluorophenyl)-1H-imidazol-2-yl]thio}methyl)-N-[(pyrrolidin-1-ylamino)carbonyl]benzenesulfonamide]
1000 to 10000	100 to 1000	CC(C)(c1ccc(F)c(F)c1)c1cnc(SCc2ccc(S(=O)(=O)NC(=O)NN3CCCC3)cc2Cl)n1-c1ccc(F)cc1F [3-chloro-4-[({1-(2,4-difluorophenyl)-5-[1-(3,4-difluorophenyl)-1-methylethyl]-1H-imidazol-2-yl}thio)methyl]-N-[(pyrrolidin-1-ylamino)carbonyl]benzenesulfonamide]
1000 to 10000	100 to 1000	CC(C)(c1ccc(F)c(F)c1)c1cnc(SCc2ccc(S(=O)(=O)NC(=O)NN3CCCC3)cc2Cl)n1-c1ccc(F)c(F)c1 [3-chloro-4-[({1-(3,4-difluorophenyl)-5-[1-(3,4-difluorophenyl)-1-methylethyl]-1H-imidazol-2-yl}thio)methyl]-N-[(pyrrolidin-1-ylamino)carbonyl]benzenesulfonamide]
1000 to 10000	100 to 1000	CC(C)(c1ccc(F)c(F)c1)c1cnc(SCc2ccc(S(=O)(=O)NC(=O)NN3CCCC3)cc2Cl)n1-c1ccc(F)c(Cl)c1 [3-chloro-4-[({1-(3-chloro-4-fluorophenyl)-5-[1-(3,4-difluorophenyl)-1-methylethyl]-1H-imidazol-2-yl}thio)methyl]-N-[(pyrrolidin-1-ylamino)carbonyl]benzenesulfonamide]
1000 to 10000	100 to 1000	CC(C)(c1ccc(F)cc1)c1cnc(SCc2ccc(S(=O)(=O)NC(=O)NN3CCCC3)cc2Cl)n1-c1ccc(F)c(Cl)c1 [3-chloro-4-[({1-(3-chloro-4-fluorophenyl)-5-[1-(4-fluorophenyl)-1-methylethyl]-1H-imidazol-2-yl}thio)methyl]-N-[(pyrrolidin-1-ylamino)carbonyl]benzenesulfonamide]
1000 to 10000	100 to 1000	CC(C)(c1ccc(Cl)c(Cl)c1)c1cnc(SCc2ccc(S(=O)(=O)NC(=O)NN3CCCC3)cc2Cl)n1-c1ncc(F)cc1F [3-chloro-4-[({5-[1-(3,4-dichlorophenyl)-1-methylethyl]-1-(3,5-difluoropyridin-2-yl)-1H-imidazol-2-yl}thio)methyl]-N-[(pyrrolidin-1-ylamino)carbonyl]benzenesulfonamide]
100 to 1000	< 100	CC(C)(c1ccc(Cl)c(Cl)c1)c1cnc(SCc2c(F)cc(C(=O)O)cc2Cl)n1-c1ccc(F)cc1 [3-chloro-4-[({5-[1-(3,4-dichlorophenyl)-1-methylethyl]-1-(4-fluorophenyl)-1H-imidazol-2-yl}thio)methyl]-5-fluorobenzoic acid]
1000 to 10000	100 to 1000	CC(C)(c1ccc(Cl)c(Cl)c1)c1cnc(SCc2ccc(S(=O)(=O)NC(=O)NN3CCCC3)cc2Cl)n1-c1ccc(F)cc1 [3-chloro-4-[({5-[1-(3,4-dichlorophenyl)-1-methylethyl]-1-(4-fluorophenyl)-1H-imidazol-2-yl}thio)methyl]-N-[(pyrrolidin-1-ylamino)carbonyl]benzenesulfonamide]
100 to 1000	100 to 1000	CC(C)NC(=O)NS(=O)(=O)c1ccc(CSc2ncc(C(C)(C)c3ccc(Cl)c(Cl)c3)n2-c2ccc(F)cc2)c(Cl)c1 [3-chloro-4-[({5-[1-(3,4-dichlorophenyl)-1-methylethyl]-1-(4-fluorophenyl)-1H-imidazol-2-yl}thio)methyl]-N-{[(1-methylethyl)amino]carbonyl}benzenesulfonamide]
100 to 1000	100 to 1000	CC(C)(c1ccc(Cl)c(Cl)c1)c1cnc(SCc2ccc(S(N)(=O)=O)cc2Cl)n1-c1ccc(F)cc1 [3-chloro-4-[({5-[1-(3,4-dichlorophenyl)-1-methylethyl]-1-(4-fluorophenyl)-1H-imidazol-2-yl}thio)methyl]benzenesulfonamide]
100 to 1000	100 to 1000	CC(C)(c1ccc(Cl)c(Cl)c1)c1cnc(SCc2ccc(S(=O)(=O)O)cc2Cl)n1-c1ccc(F)cc1 [3-chloro-4-[({5-[1-(3,4-dichlorophenyl)-1-methylethyl]-1-(4-fluorophenyl)-1H-imidazol-2-yl}thio)methyl]benzenesulfonic acid]
100 to 1000	100 to 1000	CC(C)(c1ccc(Cl)c(Cl)c1)c1cnc(SCc2ccc(C(=O)O)cc2Cl)n1-c1ccc(F)cc1 [3-chloro-4-[({5-[1-(3,4-dichlorophenyl)-1-methylethyl]-1-(4-fluorophenyl)-1H-imidazol-2-yl}thio)methyl]benzoic acid]
100 to 1000	100 to 1000	CC(C)(c1ccc(Cl)c(Cl)c1)c1cnc(SCc2ccc(S(=O)(=O)NC(=O)NN3CCCC3)cc2Cl)n1-c1ccc(F)cn1 [3-chloro-4-[({5-[1-(3,4-dichlorophenyl)-1-methylethyl]-1-(5-fluoropyridin-2-yl)-1H-imidazol-2-yl}thio)methyl]-N-[(pyrrolidin-1-ylamino)carbonyl]benzenesulfonamide]
< 100	< 100	COc1cc(-n2c(C(C)(C)c3ccc(Cl)c(Cl)c3)cnc2SCc2c(F)cc(C(=O)O)cc2Cl)ccc1F [3-chloro-4-[({5-[1-(3,4-dichlorophenyl)-1-methylethyl]-1-[4-fluoro-3-(methyloxy)phenyl]-1H-imidazol-2-yl}thio)methyl]-5-fluorobenzoic acid]
100 to 1000	100 to 1000	COc1cc(-n2c(C(C)(C)c3ccc(Cl)c(Cl)c3)cnc2SCc2ccc(S(=O)(=O)NC(=O)NN3CCOCC3)cc2Cl)ccc1F [3-chloro-4-[({5-[1-(3,4-dichlorophenyl)-1-methylethyl]-1-[4-fluoro-3-(methyloxy)phenyl]-1H-imidazol-2-yl}thio)methyl]-N-[(morpholin-4-ylamino)carbonyl]benzenesulfonamide]
1000 to 10000	100 to 1000	COc1cc(-n2c(C(C)(C)c3ccc(Cl)c(Cl)c3)cnc2SCc2ccc(S(=O)(=O)NC(=O)NN3CCCC3)cc2Cl)ccc1F [3-chloro-4-[({5-[1-(3,4-dichlorophenyl)-1-methylethyl]-1-[4-fluoro-3-(methyloxy)phenyl]-1H-imidazol-2-yl}thio)methyl]-N-[(pyrrolidin-1-ylamino)carbonyl]benzenesulfonamide]
1000 to 10000	100 to 1000	Cc1cc(-n2c(C(C)(C)c3ccc(F)c(F)c3)cnc2SCc2ccc(S(=O)(=O)NC(=O)NN3CCCC3)cc2Cl)ccc1F [3-chloro-4-[({5-[1-(3,4-difluorophcnyl)-1-methylethyl]-1-(4-fluoro-3-methylphenyl)-1H-imidazol-2-yl}thio)methyl]-N-[(pyrrolidin-1-ylamino)carbonyl]benzenesulfonamide]
1000 to 10000	100 to 1000	CC(C)(c1ccc(F)c(F)c1)c1cnc(SCc2ccc(S(=O)(=O)NC(=O)NN3CCCC3)cc2Cl)n1-c1ccc(F)cc1 [3-chloro-4-[({5-[1-(3,4-difluorophenyl)-1-methylethyl]-1-(4-fluorophenyl)-1H-imidazol-2-yl}thio)methyl]-N-[(pyrrolidin-1-ylamino)carbonyl]benzenesulfonamide]
100 to 1000	100 to 1000	CC(C)NC(=O)NS(=O)(=O)c1ccc(CSc2ncc(C(C)(C)c3ccc(F)c(F)c3)n2-c2ccc(F)cc2)c(Cl)c1 [3-chloro-4-[({5-[1-(3,4-difluorophenyl)-1-methylethyl]-1-(4-fluorophenyl)-1H-imidazol-2-yl}thio)methyl]-N-{[(1-methylethyl)amino]carbonyl}benzenesulfonamide]
100 to 1000	100 to 1000	CC(C)(c1ccc(F)c(F)c1)c1cnc(SCc2ccc(S(N)(=O)=O)cc2Cl)n1-c1ccc(F)cc1 [3-chloro-4-[({5-[1-(3,4-difluorophenyl)-1-methylethyl]-1-(4-fluorophenyl)-1H-imidazol-2-yl}thio)methyl]benzenesulfonamide]
100 to 1000	100 to 1000	COc1cc(-n2c(C(C)(C)c3ccc(F)c(F)c3)cnc2SCc2ccc(S(=O)(=O)NC(=O)NN3CCCC3)cc2Cl)ccc1F [3-chloro-4-[({5-[1-(3,4-difluorophenyl)-1-methylethyl]-1-[4-fluoro-3-(methyloxy)phenyl]-1H-imidazol-2-yl}thio)methyl]-N-[(pyrrolidin-1-ylamino)carbonyl]benzenesulfonamide]
100 to 1000	100 to 1000	CC(C)(c1ccc(F)c(Cl)c1)c1cnc(SCc2ccc(S(=O)(=O)NC(=O)NN3CCCC3)cc2Cl)n1-c1ccc(F)cc1 [3-chloro-4-[({5-[1-(3-chloro-4-fluorophenyl)-1-methylethyl]-1-(4-fluorophenyl)-1H-imidazol-2-yl}thio)methyl]-N-[(pyrrolidin-1-ylamino)carbonyl]benzenesulfonamide]
100 to 1000	100 to 1000	CC(C)(c1ccc(F)c(C#N)c1)c1cnc(SCc2ccc(S(=O)(=O)NC(=O)NN3CCCC3)cc2Cl)n1-c1ccc(F)cc1 [3-chloro-4-[({5-[1-(3-cyano-4-fluorophenyl)-1-methylethyl]-1-(4-fluorophenyl)-1H-imidazol-2-yl}thio)methyl]-N-[(pyrrolidin-1-ylamino)carbonyl]benzenesulfonamide]
